Assay results reported in patent publication US20090192151A1, “THERAPEUTIC AMIDES AND RELATED COMPOUNDS” (priority 2008, published 2009).

System: lashes and adjacent hairs
Assay: Clinical observation of lashes and adjacent hairs in glaucoma patients treated with bimatoprost in only one eye
Type: in vivo
Description: In the course of treating patients having glaucoma, treatment may only be appropriate in one eye. […] The lash appearance on the lids of the treated eyes would have appeared quite attractive if it represented a bilateral phenomenon. As a result of its asymmetric nature, the long lashes on one side could be construed as disturbing from a cosmetic standpoint. A systemic examination was preformed as a result of the asymmetric phenomenon. It soon became apparent that this altered appearance was not an isolated finding.
The changes in the lashes were apparent on gross inspection in several patients once attention was focused on the issue. In those with light colored hair and lashes, the differences were only seen easily with the aid of the high magnification and lighting capabilities of the slit lamp biomicroscope. In the course of glaucoma follow-up examination, attention is generally immediately focused on the eye itself. As a result of the high power magnification needed only one eye is seen at a time and the eye is seen at a high enough power that the lashes are not in focus. At these higher powers, any lash asymmetry between the two eyes is not likely to be noticed except by careful systematic comparison of the lashes and adjacent hairs of the eyelids of the two eyes.
Observed parameters leading to the conclusion that more robust hair growth occurred in the treatment area following administration of the prostaglandin analogue were multiple. They included increased length of lashed, increased number of lashes along the normal lash line, increased thickness and luster of lashes, increased auxiliary lash-like terminal hair in transitional areas adjacent to areas of normal lash growth, increased auxiliary lash-like terminal hairs at the medial and lateral canthal area, increased pigmentation of the lashes, increased numbers, increased length, as well as increased luster, and thickness of fine hair on the skin of the adjacent lid, and finally, increased perpendicular angulation of lashes and lash-like terminal hairs.

## CCNC(=O)CCC/C=C\C[C@@H]1[C@@H](/C=C/[C@@H](O)CCc2ccccc2)[C@H](O)C[C@@H]1O [bimatoprost]
A glaucoma patient treated with bimatoprost in one eye, gross examination
  lash appearance in treated eye versus non-treated eye: longer, thicker, and fuller in the treated eye than in the non-treated eye
All patients taking the drug on a unilateral basis for longer than 6 months
  differences in the lashes and adjacent hairs of treated side: Definite differences could be identified to varying degrees
Many subjects, lash length, number, thickness, luster, pigmentation, auxiliary terminal hairs
  hair growth, conclusion from multiple parameters of hair appearance in treated versus control areas: hair growth is stimulated
